Measurements reported in patent publication US11541050B2, “Pyrimidine derivatives for the treatment of viral infections” (JANSSEN SCIENCES IRELAND UC, priority 2011, dated 2023).

Legend:
[1] = target: T1, human TLR7 (wild type sequence) (Homo sapiens, UniProt Q9NYK1); experiment: TLR7 cellular NFκB-luc reporter assay, wild type TLR7; format: cell-based; parameters: unit not given here; details: lowest effective concentration, wild type TLR7 (compounds 74 onward)
T1 construct: expressed in transfected cells; host or cells: HEK293
T1 sequence (Q9NYK1 27-1049): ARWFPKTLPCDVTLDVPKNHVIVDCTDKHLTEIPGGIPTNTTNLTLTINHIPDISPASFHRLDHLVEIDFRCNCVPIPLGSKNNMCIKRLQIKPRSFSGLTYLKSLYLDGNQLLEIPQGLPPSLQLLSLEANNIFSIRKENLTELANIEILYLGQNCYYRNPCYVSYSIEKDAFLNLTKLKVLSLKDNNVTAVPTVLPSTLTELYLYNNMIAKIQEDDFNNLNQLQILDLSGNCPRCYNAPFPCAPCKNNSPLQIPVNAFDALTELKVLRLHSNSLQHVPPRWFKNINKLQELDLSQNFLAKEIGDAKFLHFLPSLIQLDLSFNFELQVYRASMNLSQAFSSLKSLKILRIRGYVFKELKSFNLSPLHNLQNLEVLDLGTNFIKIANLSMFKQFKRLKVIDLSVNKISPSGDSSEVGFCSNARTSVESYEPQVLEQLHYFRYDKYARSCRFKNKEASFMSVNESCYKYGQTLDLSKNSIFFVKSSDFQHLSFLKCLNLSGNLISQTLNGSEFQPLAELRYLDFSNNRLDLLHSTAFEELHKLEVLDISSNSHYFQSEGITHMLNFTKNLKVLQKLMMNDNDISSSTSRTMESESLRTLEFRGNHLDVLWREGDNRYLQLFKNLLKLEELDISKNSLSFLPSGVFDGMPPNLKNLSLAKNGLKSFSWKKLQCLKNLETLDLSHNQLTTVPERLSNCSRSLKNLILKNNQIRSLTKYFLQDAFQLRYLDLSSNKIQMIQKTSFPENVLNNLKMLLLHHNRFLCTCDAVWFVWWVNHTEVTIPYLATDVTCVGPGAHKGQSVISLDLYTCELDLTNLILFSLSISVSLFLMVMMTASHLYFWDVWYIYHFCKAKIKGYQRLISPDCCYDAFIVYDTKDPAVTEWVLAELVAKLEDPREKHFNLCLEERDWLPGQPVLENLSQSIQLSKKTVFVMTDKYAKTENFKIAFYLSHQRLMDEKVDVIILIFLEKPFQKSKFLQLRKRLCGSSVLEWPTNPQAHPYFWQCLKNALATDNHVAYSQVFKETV
In short: (§1)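 Transfected HEK293 cells expressing wild type or second leucine-rich repeat-deleted TLR7 or TLR8 together with an NFκB-luciferase reporter are treated with compound for 6 hours. Activation is measured by luciferase, and LEC is the lowest concentration exceeding the assay standard deviation at least two fold.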

[2] = target: T2, human TLR8 (wild type sequence) (Homo sapiens, UniProt Q9NR97); experiment: TLR8 cellular NFκB-luc reporter assay, wild type TLR8; format: cell-based; parameters: unit not given here; details: lowest effective concentration, wild type TLR8 (compounds 74 onward)
T2 construct: expressed in transfected cells; host or cells: HEK293
T2 sequence (Q9NR97 27-1041): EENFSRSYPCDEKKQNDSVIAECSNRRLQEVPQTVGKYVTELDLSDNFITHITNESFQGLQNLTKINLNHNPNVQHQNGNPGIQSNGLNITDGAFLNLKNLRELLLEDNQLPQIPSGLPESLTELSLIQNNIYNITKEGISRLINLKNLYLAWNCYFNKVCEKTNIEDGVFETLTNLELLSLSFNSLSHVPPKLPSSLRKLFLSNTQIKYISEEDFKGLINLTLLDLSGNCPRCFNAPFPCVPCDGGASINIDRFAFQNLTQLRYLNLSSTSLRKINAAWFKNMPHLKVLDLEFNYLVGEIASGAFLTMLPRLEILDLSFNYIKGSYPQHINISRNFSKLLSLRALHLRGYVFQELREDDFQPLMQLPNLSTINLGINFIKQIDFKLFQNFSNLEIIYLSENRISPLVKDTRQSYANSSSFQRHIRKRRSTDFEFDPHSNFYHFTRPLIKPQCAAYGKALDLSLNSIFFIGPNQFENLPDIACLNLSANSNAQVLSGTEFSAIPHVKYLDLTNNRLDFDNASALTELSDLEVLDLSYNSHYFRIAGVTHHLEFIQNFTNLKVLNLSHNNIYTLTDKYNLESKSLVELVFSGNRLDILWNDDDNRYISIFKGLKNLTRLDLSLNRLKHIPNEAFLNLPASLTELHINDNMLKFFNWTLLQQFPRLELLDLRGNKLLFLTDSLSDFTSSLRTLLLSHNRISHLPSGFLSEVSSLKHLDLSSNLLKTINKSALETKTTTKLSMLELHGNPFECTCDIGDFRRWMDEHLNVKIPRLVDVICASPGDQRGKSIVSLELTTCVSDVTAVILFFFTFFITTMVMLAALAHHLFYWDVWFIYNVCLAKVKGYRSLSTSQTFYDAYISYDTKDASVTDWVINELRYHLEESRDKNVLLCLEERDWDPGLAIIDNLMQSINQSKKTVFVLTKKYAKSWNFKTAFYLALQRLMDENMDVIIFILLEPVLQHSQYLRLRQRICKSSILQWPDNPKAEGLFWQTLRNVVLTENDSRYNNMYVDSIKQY
In short: as §1

[3] = tested on: HCV replicon in Huh-7 luc/neo cells; experiment: Suppression of HCV replicon replication by conditioned media from compound-treated PBMC; format: cell-based, HCV type 1 b; details: Hepatitis C virus; conditioned media from compound-treated PBMC on Huh-7 luc/neo replicon cells (compounds 74 onward); read-out: PBMC HUH-7 EC50
In short: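 Readout is firefly luciferase from an HCV genotype 1b NS3-NS5B bicistronic replicon in Huh-7 cells, measured 24 h after adding conditioned medium. That medium came from overnight culture of compound-treated PBMC (2×10^5/well, human AB serum, at least two donors). Interferon α-2a was the reference.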

SMILES | TLR 7 wt LEC [1] | TLR 8 wt LEC [2] | EC50 [3]
CCCCNc1nc(N)ncc1OCc1cccc2cccnc12 [Compound 184] | 0.157 | 1.650 | 53 nM
CCCC(C)Nc1nc(N)nc(C)c1OCc1ccccc1 (stereo not drawn) [Compound 168] | >25 | 14.900 | 11700 nM
CCCCNc1nc(N)ncc1OCCCCc1ccccc1 [Compound 110] | 2.380 | 3.780 | 740 nM
CCCCNc1nc(N)ncc1OCc1cc(-c2ccco2)on1 [Compound 116] | 0.652 | 1.610 | 66 nM
CCC[C@@H](CCO)Nc1nc(N)ncc1OCc1ccc2ccccc2n1 [Compound 188] | 0.237 | 0.530 | 86 nM
CCC[C@H](CCO)Nc1nc(N)ncc1OCc1ccccc1 [Compound 190] | 8.620 | 4.330 | 3230 nM
CCCCNc1nc(N)ncc1OCCCc1ccc(Cl)c(Cl)c1 [Compound 169] | 5.110 | >25 | 3130 nM
CCCCNc1nc(N)ncc1OCc1noc(-c2ccccc2)n1 [Compound 156] | 0.828 | 2.060 | 697 nM
CCCCNc1nc(N)ncc1OCCCc1ccncc1 [Compound 177] | 0.795 | 0.819 | 197 nM
CCCCCNc1nc(N)nc(C)c1OCc1ccccc1 [Compound 124] | 15.610 | 13.650 | > 23800 nM
CCCCNc1nc(N)ncc1OCCCc1cccc(OC)c1 [Compound 146] | 1.230 | 2.300 | 707 nM
CCCCNc1nc(N)ncc1OCCCc1cc(OC)c(OC)c(OC)c1 [Compound 160] | 0.756 | 2.710 | 634 nM
CCCCNc1nc(N)ncc1OCc1ncccc1OC [Compound 179] | 0.078 | 0.142 | 21 nM
CCCCNc1nc(N)ncc1OCc1cc2c(cn1)[nH]c1ccccc12 [Compound 159] | 0.159 | 1.080 | 18 nM
CCCCNc1nc(N)ncc1OCCCc1cc(OC)ccc1OC [Compound 148] | 0.691 | 4.850 | 634 nM
COc1cnc(N)nc1NCCCCF [Compound 97] | 21.810 | 5.070 | 2640 nM
CCCCNc1nc(N)ncc1OCCOc1ccc(OC)c(OC)c1 [Compound 140] | 0.617 | 2.250 | 175 nM
CCCCNc1nc(N)ncc1OCCOc1cccc(OC)c1 [Compound 127] | 1.030 | 2.050 | 256 nM
CCCC[C@@H](CCO)Nc1nc(N)ncc1OCc1ncc(C)c(OC)c1C [Compound 75] | 0.023 | 0.218 | 7 nM
CCCCNc1nc(N)ncc1O[C@H](C)c1ccccc1 [Compound 98] | >25 | 10.100 | 22000 nM
CCCCNc1nc(N)ncc1OCCCc1cccc(OC)c1OC [Compound 150] | 1.180 | 4.310 | 689 nM
CCCCNc1nc(N)ncc1OCc1nccc(OCC(F)(F)F)c1C [Compound 139] | 0.025 | 0.286 | 9 nM
CCCCNc1nc(N)ncc1OCc1nn(C)c2cc(OC)c(OC)cc12 [Compound 183] | 0.056 | 1.580 | 23 nM
CCCCNc1nc(N)ncc1OCCOc1cc(OC)cc(OC)c1 [Compound 129] | 2.090 | 3.250 | 432 nM
CCC[C@@H](CO)Nc1nc(N)ncc1OCc1ccc2ccccc2n1 [Compound 192] | 0.080 | 0.220 | 44 nM
